Where “and” joins values, the source holds several entries; their conditions need not be identical. Equal entries are not always repeated.
Assays:
HCT116 cells = experiment: Bru-seq nascent RNA profiling; settings: C1-14 (10 μM) 4 h vs DMSO
Procedure: The data set was analysed using the DAVID, ingenuity pathway analysis (IPA) and GSEA for pathway identification. […] Data sets with nearly 250 genes containing the gene identifiers and fold changes were uploaded to the IPA web-based application and each gene identifier was mapped to its corresponding gene object in the ingenuity pathways knowledge base. Finally, the biological function genes were ordered by P value of significance and maximum number of genes in the pathway. Bru-Seq data were further analysed using GSEA for exploring the mechanism of cellular action of GSTO1 and its inhibitor. A pre-ranked gene list of the Bru-Seq data set was submitted to GSEA, and enrichment analysis was done based on the Kolmogorov–Smirnov statistic[59][60]. […] For each gene set, the ES (enrichment score) was normalized to account for differences in gene set size and the false discovery rate relative to the normalized enrichment score values was calculated.

GSTO1 [1] = target: T1, GSTO1 (Homo sapiens, UniProt P78417); experiment: GSTO1 substrate assay (reduction of 4-NPG); settings: for IC50: read-out: GSTO substrate assay IC50, cluster screening tables
T1 sequence (P78417 1-241): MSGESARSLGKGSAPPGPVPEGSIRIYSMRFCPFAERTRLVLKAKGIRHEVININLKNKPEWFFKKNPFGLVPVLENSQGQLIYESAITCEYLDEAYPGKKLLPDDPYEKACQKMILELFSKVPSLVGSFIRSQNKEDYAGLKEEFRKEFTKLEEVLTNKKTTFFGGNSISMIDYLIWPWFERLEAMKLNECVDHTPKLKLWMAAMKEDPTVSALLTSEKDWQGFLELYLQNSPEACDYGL
Procedure: For activity screening, we adapted a GSTO1 substrate assay that relies on the quantification of the reduction of S-(4-nitrophenacyl)glutathione (4-NPG), a GSTO1-specific substrate[17], using recombinant human GSTO1 in a high-throughput screening format.
Enzyme activity was measured by monitoring the reduction of 4-NPG to 4-nitroacetophenone by GSTO1.

GSTO1 [2] = target: T1, GSTO1; experiment: In-gel fluorescence competitive CMFDA binding assay, recombinant GSTO1; settings: inhibition of CMFDA binding
From the text: (§2) Primary screening of GSTO inhibitors was based on competitive inhibition of CMFDA binding to endogenous GSTO. Briefly, HCT116^p53+/+ cells (4 × 10^4 per well) were coated in a 12-well plate. […] Cells were then washed with PBS and lysed using Cell Lytic M buffer (Sigma). […] Gels were immediately scanned on a Typhoon variable mode imager (Amersham Bioscience). Quantification of fluorescent band intensity was done using Image Quant 5.2 software.

endogenous GSTO1 = target: T2, endogenous GSTO1 (Homo sapiens, UniProt P78417); experiment: In-gel fluorescence competitive CMFDA binding assay, endogenous GSTO1 in HCT116; settings: for GSTO binding assay (% Inhibition at 10 µM) Endogenous: inhibition of CMFDA binding, HCT116; for IC50: read-out: Competitive Binding assay Endogenous GSTO1 IC50
T2 sequence (P78417 1-241): T1 sequence (P78417 1-241)
From the text: as §2

HCT116p53+/+ cell = experiment: MTT cell proliferation at single concentration; format: cell-based, human
Summary of the method: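 Cancer cells attached overnight, exposed to GSTO1 inhibitors for 72 h, then MTT added for 3 h at 37 °C; formazan dissolved in DMSO, absorbance read at 570 nm. At least three independent dose–response experiments, triplicate per concentration.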

HT29 = experiment: MTT cytotoxicity GI50, HT29; format: cell-based
Procedure: (§1) Cell proliferation was assessed by a MTT assay. Cancer cells were seeded in 96-well microtitre plates and, after overnight attachment, treated with GSTO1 inhibitors. After 72 h, MTT solution (3 mg ml^−1; 20 μl) was added to each well and cells were incubated for 3 h at 37 °C. After incubation, media from each well was removed and the dark blue formazan crystals formed by live cells were dissolved in DMSO (150 μl per well). The absorbance intensity was measured at 570 nm on a microplate reader (Molecular Devices, Sunnyvale, CA, USA). Cell viability after 24 h treatment was assessed using ApoTox-Glo triplex assay (Promega) according to the manufacturer's protocol. At least three independent dose–response experiments with each concentration tested in triplicate were performed for each cell line.

HCT116 = experiment: MTT cytotoxicity GI50, HCT116; format: cell-based, human
Procedure: as §1

PDI = PDI (Homo sapiens, UniProt P07237); experiment: PDI activity assay (PDI-catalysed reduction of insulin); format: biochemical; parameters: made in house; settings: for Fold selectivity: GSTO1 versus PDI enzyme inhibition; for IC50: inhibition of PDI-catalyzed reduction of insulin
Sequence of PDI (P07237 18-508, species assumed): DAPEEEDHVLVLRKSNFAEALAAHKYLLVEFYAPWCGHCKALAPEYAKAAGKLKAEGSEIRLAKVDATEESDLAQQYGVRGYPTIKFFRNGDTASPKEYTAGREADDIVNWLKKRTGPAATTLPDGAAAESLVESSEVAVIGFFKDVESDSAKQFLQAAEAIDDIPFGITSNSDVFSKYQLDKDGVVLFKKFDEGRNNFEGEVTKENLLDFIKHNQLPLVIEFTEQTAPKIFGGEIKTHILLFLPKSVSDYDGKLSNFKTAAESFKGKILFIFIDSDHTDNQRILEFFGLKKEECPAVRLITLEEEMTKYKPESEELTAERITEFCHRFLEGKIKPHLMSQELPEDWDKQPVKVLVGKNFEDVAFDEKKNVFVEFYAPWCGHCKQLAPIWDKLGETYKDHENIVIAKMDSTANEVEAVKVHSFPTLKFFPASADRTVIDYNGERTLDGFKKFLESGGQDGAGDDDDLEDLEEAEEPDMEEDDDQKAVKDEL
Procedure: The reduction reaction was catalysed by PDI at room temperature, and the resulting aggregation of reduced insulin B chains was measured at 620 nm. % PDI activity was calculated from absorbance values at T=0 and 80 min.

Structure (SMILES): CN(C)c1ccc(Cl)cc1NC(=O)CCl [C1-14]
- ATP5L2 fold change (HCT116 cells): 0.70
- ATP6AP1L fold change (HCT116 cells): 0.71
- AURKAPS1 fold change (HCT116 cells): 0.68
- BACE1-AS fold change (HCT116 cells): 0.60
- HFM1 fold change (HCT116 cells): 8.78
- HIST1H1E fold change (HCT116 cells): 8.67
- HIST1H2AC fold change (HCT116 cells): 5.52
- HIST1H2AG fold change (HCT116 cells): 10.36
- HIST1H2AH fold change (HCT116 cells): 6.00
- HIST1H2AI fold change (HCT116 cells): 8.25
- HIST1H2AJ fold change (HCT116 cells): 11.27
- HIST1H2BJ fold change (HCT116 cells): 5.45
- HIST1H2BL fold change (HCT116 cells): 15.96
- HIST1H2BN fold change (HCT116 cells): 5.80
- HIST1H3H fold change (HCT116 cells): 6.41
- HIST1H4C fold change (HCT116 cells): 5.72
- HIST1H4D fold change (HCT116 cells): 7.81
- HIST1H4K fold change (HCT116 cells): 18.57
- HIST2H2AB fold change (HCT116 cells): 5.21
- HIST2H3D fold change (HCT116 cells): 7.39
- HIST3H2BB fold change (HCT116 cells): 6.97
- HIST4H4 fold change (HCT116 cells): 7.84
- HSP90AB4P fold change (HCT116 cells): 0.72
- HUS1B fold change (HCT116 cells): 0.46
- IER3 fold change (HCT116 cells): 0.72
- LINC00115 fold change (HCT116 cells): 0.64
- LINC00311 fold change (HCT116 cells): 0.62
- LINC00471 fold change (HCT116 cells): 0.67
- P2RX5-TAX1BP3 fold change (HCT116 cells): 0.65
- REP15 fold change (HCT116 cells): 0.70
- RIBC2 fold change (HCT116 cells): 0.70
- RPA4 fold change (HCT116 cells): 0.69
- RPPH1 fold change (HCT116 cells): 16.74
- SCARNA10 fold change (HCT116 cells): 5.37
- SLC7A5P1 fold change (HCT116 cells): 0.38
- TIGD6 fold change (HCT116 cells): 0.71
- TNFAIP3 fold change (HCT116 cells): 0.71
- TYRO3P fold change (HCT116 cells): 0.65
- ZNF572 fold change (HCT116 cells): 0.70
- ZNF670-ZNF695 fold change (HCT116 cells): 0.58
- GSTO substrate assay % Inhibition at 10 µM (GSTO1 [1]): 16.5%
- GSTO binding assay (% Inhibition at 10 µM) Recombinant (GSTO1 [2]): -15.6%
- GSTO binding assay (% Inhibition at 10 µM) Endogenous (endogenous GSTO1): 6.7%

Structure (SMILES): O=C(CCl)Nc1ccc(S(=O)(=O)C(F)F)cc1 [C1-24]
- % Inhibition of HCT116p53+/+ cell proliferation at 10 µM (HCT116p53+/+ cell): 89.5% and 91.8%
- GI50 (HT29): 5.1 ± 1.3 µM
- GI50 (HCT116): 3.3 ± 1.1 µM
- Fold selectivity (PDI): 24.1
- IC50 (PDI): 3.57 ± 0.69 µM
- GSTO substrate assay % Inhibition at 10 µM (GSTO1 [1]): 77%
- IC50 (GSTO1 [1]): 0.148 µM
- GSTO binding assay (% Inhibition at 10 µM) Recombinant (GSTO1 [2]): 68.4%
- GSTO binding assay (% Inhibition at 10 µM) Endogenous (endogenous GSTO1): 62.1%

Structure (SMILES): O=C(CCl)Nc1cc(S(=O)(=O)N(C(=O)CCl)c2cccc(Cl)c2)ccc1Cl [C1-29]
- % Inhibition of HCT116p53+/+ cell proliferation at 10 µM (HCT116p53+/+ cell): 42.5%
- GI50 (HT29): 15.5 ± 0.2 µM
- GI50 (HCT116): 13.7 ± 1.3 µM
- Fold selectivity (PDI): 48.7
- IC50 (PDI): 1.46 ± 0.33 µM
- GSTO substrate assay % Inhibition at 10 µM (GSTO1 [1]): 102.3%
- IC50 (GSTO1 [1]): 0.03 µM
- GSTO binding assay (% Inhibition at 10 µM) Recombinant (GSTO1 [2]): 70.6%
- GSTO binding assay (% Inhibition at 10 µM) Endogenous (endogenous GSTO1): 61.0%
- IC50 (endogenous GSTO1): 0.044 µM

Structure (SMILES): COC(=O)c1c(-c2ccccc2Cl)csc1NC(=O)CCl [C2-10]
- % Inhibition of HCT116p53+/+ cell proliferation at 10 µM (HCT116p53+/+ cell): 9.1%
- GI50 (HT29): 18.1 ± 1.6 µM
- GI50 (HCT116): 18.8 ± 1.6 µM
- IC50 (PDI): > 10 µM
- GSTO substrate assay % Inhibition at 10 µM (GSTO1 [1]): 88.4%
- IC50 (GSTO1 [1]): 0.062 µM
- GSTO binding assay (% Inhibition at 10 µM) Recombinant (GSTO1 [2]): 48.4%
- GSTO binding assay (% Inhibition at 10 µM) Endogenous (endogenous GSTO1): 51.6%
- IC50 (endogenous GSTO1): 0.19 µM

Structure (SMILES): CCOC(=O)c1c(NC(=O)CCl)sc2c1CCCCC2 [C2-16]
- GI50 (HT29): 19.8 µM
- GI50 (HCT116): > 20 µM
- Fold selectivity (PDI): 61.1
- IC50 (PDI): 4.03 ± 0.72 µM
- GSTO substrate assay % Inhibition at 10 µM (GSTO1 [1]): 73.0%
- IC50 (GSTO1 [1]): 0.066 µM
- GSTO binding assay (% Inhibition at 10 µM) Recombinant (GSTO1 [2]): 54.7%
- GSTO binding assay (% Inhibition at 10 µM) Endogenous (endogenous GSTO1): 53.0%
- IC50 (endogenous GSTO1): 0.52 µM

Structure (SMILES): CCCCN(C(=O)CCl)c1c(N)n(CC(C)C)c(=O)[nH]c1=O [C4-19]
- % Inhibition of HCT116p53+/+ cell proliferation at 10 µM (HCT116p53+/+ cell): 67.3%
- GSTO substrate assay % Inhibition at 10 µM (GSTO1 [1]): 11.8%
- GSTO binding assay (% Inhibition at 10 µM) Recombinant (GSTO1 [2]): 2.1%
- GSTO binding assay (% Inhibition at 10 µM) Endogenous (endogenous GSTO1): -20.7%

Structure (SMILES): O=C(CCl)N(NC(=O)P(=O)(N1CCOCC1)N1CCOCC1)c1ccc(Br)cc1 [C4-20]
- % Inhibition of HCT116p53+/+ cell proliferation at 10 µM (HCT116p53+/+ cell): 10.4% and 6.3%
- GSTO substrate assay % Inhibition at 10 µM (GSTO1 [1]): -7.3%
- GSTO binding assay (% Inhibition at 10 µM) Recombinant (GSTO1 [2]): 9.3%
- GSTO binding assay (% Inhibition at 10 µM) Endogenous (endogenous GSTO1): 27.6%

Structure (SMILES): Cc1cccc(C(O)(C(=O)NN(C(=O)CCl)C2CCCCC2)c2cccc(C)c2)c1 [C4-21]
- % Inhibition of HCT116p53+/+ cell proliferation at 10 µM (HCT116p53+/+ cell): 50.6% and 54.9%
- GSTO substrate assay % Inhibition at 10 µM (GSTO1 [1]): 23.3%
- GSTO binding assay (% Inhibition at 10 µM) Recombinant (GSTO1 [2]): 9.8%
- GSTO binding assay (% Inhibition at 10 µM) Endogenous (endogenous GSTO1): 20.6%

Structure (SMILES): CC(C)C(C#N)N1CCN(C(=O)CCl)CC1 (stereo not drawn) [C5-2]
- % Inhibition of HCT116p53+/+ cell proliferation at 10 µM (HCT116p53+/+ cell): 40.2% and 61.1%
- GSTO substrate assay % Inhibition at 10 µM (GSTO1 [1]): 58.2%
- IC50 (GSTO1 [1]): 0.559 µM
- GSTO binding assay (% Inhibition at 10 µM) Recombinant (GSTO1 [2]): 52.5%
- GSTO binding assay (% Inhibition at 10 µM) Endogenous (endogenous GSTO1): 66.2%

Structure (SMILES): O=C(CCl)N1CCN(c2ccccc2F)CC1 [C5-3]
- % Inhibition of HCT116p53+/+ cell proliferation at 10 µM (HCT116p53+/+ cell): 28.2%
- GSTO substrate assay % Inhibition at 10 µM (GSTO1 [1]): 59.8%
- GSTO binding assay (% Inhibition at 10 µM) Recombinant (GSTO1 [2]): 9.4%
- GSTO binding assay (% Inhibition at 10 µM) Endogenous (endogenous GSTO1): 61.5%

Structure (SMILES): O=C(CCl)N1CCN(c2ccc(O)cc2)CC1 [C5-4]
- % Inhibition of HCT116p53+/+ cell proliferation at 10 µM (HCT116p53+/+ cell): 81.9% and 84.4%
- GSTO substrate assay % Inhibition at 10 µM (GSTO1 [1]): 41.0%
- GSTO binding assay (% Inhibition at 10 µM) Recombinant (GSTO1 [2]): 13.5%
- GSTO binding assay (% Inhibition at 10 µM) Endogenous (endogenous GSTO1): 33.4%

Source: PMC5059489, “Mechanistic evaluation and transcriptional signature of a glutathione S-transferase omega 1 inhibitor” (Nature Communications, 2016)
